Test results: patent publication US4578400A, “Therapeutic composition and method for treatment of cardiovascular diseases” (priority 1982, dated 1986)

Assays:
[1] = system: ventricular fibrillation after coronary artery ligation; assay: Antiarrhythmic effects on myocardial infarction (coronary ligation); type: in vivo, dogs; conditions: for Threshold level for inducing ventricular fibrillation, 30 min after ligation: before ligation = 100, control 41
Text: Antiarrhythmic effects on myocardial infarction
The method described by Shinohara (Jap. Circul. J., 32, 1269-1281, 1968) was used. Dogs were divided into groups of 5 animals, anesthetized with intravenous pentobarbital and were thoracotomized under artificial respiration, and a platinum bipolar electrode was inserted on the wall of the right atrium. Then the sinus node was crushed and the animals were subjected to pacing (2.5 Hz, 3 msec, 3.5-8 V) with an electronic stimulator. The left anterior descending coronary artery was doubly ligated at a site 2 cm away from its origin (A. S. Harris, Circulation, 1, 1318, 1950). Then 5--HDA--Na and lidocaine were injected into the femoral vein of the respective dogs. Using an electrode inserted in an ischemic zone in the left ventricle, the animals were given 15 to 20 successive electrical shocks before the ligation and 30 minutes after the ligation and administration. The threshold level necessary for inducing ventricular fibrillation was determined for each group of animals and shown in Table 4, with the values before the ligation taken as 100.

[2] = system: myocardial mitochondria; assay: Inhibition of the decrease in respiratory capacity of myocardial mitochondria; type: biochemical, male Wistar rats; conditions: for ATP production rate: normal 515, defective 204, *P < 0.05
Method: Inhibition of the decrease in respiratory capacity of myocardial mitochondria
According to the method of Hagiwara (Biochem. Biophys. Acta, 46, 134-142, 1961), mitochondria fractions were prepared from the myocardium isolated from male Wistar rats weighing about 300 g. The respiratory capacity of the mitochondria was measured by polarography with an oxygen electrode (TA-100, Yanagimoto), with sodium glutamate and ADP being successively added to give final concentrations of 50 mM and 4 mM, respectively. Defective mitochondria were prepared by leaviang the mitochondria fractions at 0° C. for 24 hours, and 5--HDA--Na was added to determine its ability to inhibit the decrease in the respiratory capacity of the myocardial mitochondria, which is proportional to the rate of ATP production.

In the case of `CCCCCC(O)CCCC(=O)[O-].[Na+]` (stereo not shown), the “Threshold level for inducing ventricular fibrillation, 30 min after ligation” value (shortened to “Threshold level … after ligation”) ([1]; 0.3 mg/kg i.v.) is reported as 67, the “Threshold level … after ligation” value ([1]; 1.0 mg/kg i.v., *P < 0.05) is reported as 70 and the “Threshold level … after ligation” value ([1]; 3.0 mg/kg i.v., *P < 0.05) is reported as 79. The “threshold level for inducing ventricular fibrillation (in words)” value ([1]; after coronary ligation, i.v.) was “increased in a dose-dependent manner”, the “decrease in ATP production in defective mitochondria (in words)” value ([2]; defective mitochondria) was “significantly inhibited” and the ATP production rate ([2]; defective mitochondria + 10^-4 M) was 265 mM/mg-protein/min. The ATP production rate ([2]; defective mitochondria + 10^-5 M) was 220 mM/mg-protein/min.
